Source: patent US20260356824A1, “COMPOUNDS FOR TREATING FIBROTIC DISEASES” (Meta-Immue Inc., priority 2023, published 2026)

What was measured:
hLPAR1 = molecular target: T1, hLPAR1 (Homo sapiens, UniProt Q92633); assay: Ca2+ Flux Assay (B103 cells stably expressing hLPAR1); format: cell-based; settings: LPA-induced calcium release, Fura-2 AM, compound 20 min at RT
T1 construct: expressed in transfected cells
Summary of the method: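 Fura-2 AM (5 μM) loaded 40 min at RT in HBSS/20 mM HEPES/probenecid/0.3% fatty-acid-free BSA after 2 h serum starvation. Compounds preincubated 20 min at RT, then LPA […] added. Intracellular calcium mobilization read as fluorescence intensity.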

A2058 cells = assay: Chemotaxis Assay (LPA-induced migration of A2058 cells); format: cell-based; settings: Homo sapiens, 4 to 8 hours, crystal violet 590 nm
Summary of the method: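 A2058 cells, starved 24 hr and treated with test compound or vehicle, were placed on a fibronectin-coated membrane ([…]) above […] in DMEM. After 4–8 h migration, migrated cells were crystal violet stained and read at 590 nm. Values are relative percentage of control.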

[1] = Liver microsomal stability, rat; format: in vitro ADME; settings: rat liver microsomes; 30 min; percent of parent remaining; read-out: Liver Microsomal stability (%), % of remaining after 30 min, Rat
[2] = Liver microsomal stability, human; format: in vitro ADME; settings: human liver microsomes; 30 min; percent of parent remaining; read-out: Liver Microsomal stability (%), % of remaining after 30 min, Human
BSEP = molecular target: T2, BSEP (Homo sapiens, UniProt O95342); assay: Bile Salt Export Pump (BSEP) Assay, Sf9 insect cell vesicles expressing BSEP; format: in vitro ADME; settings: 10 μM test compound, probe substrate 1 μM [3H]-taurocholic acid, 15 min incubation
T2 construct: ATP-dependent uptake of radiolabelled probe substrate
T2 sequence (O95342 whole entry): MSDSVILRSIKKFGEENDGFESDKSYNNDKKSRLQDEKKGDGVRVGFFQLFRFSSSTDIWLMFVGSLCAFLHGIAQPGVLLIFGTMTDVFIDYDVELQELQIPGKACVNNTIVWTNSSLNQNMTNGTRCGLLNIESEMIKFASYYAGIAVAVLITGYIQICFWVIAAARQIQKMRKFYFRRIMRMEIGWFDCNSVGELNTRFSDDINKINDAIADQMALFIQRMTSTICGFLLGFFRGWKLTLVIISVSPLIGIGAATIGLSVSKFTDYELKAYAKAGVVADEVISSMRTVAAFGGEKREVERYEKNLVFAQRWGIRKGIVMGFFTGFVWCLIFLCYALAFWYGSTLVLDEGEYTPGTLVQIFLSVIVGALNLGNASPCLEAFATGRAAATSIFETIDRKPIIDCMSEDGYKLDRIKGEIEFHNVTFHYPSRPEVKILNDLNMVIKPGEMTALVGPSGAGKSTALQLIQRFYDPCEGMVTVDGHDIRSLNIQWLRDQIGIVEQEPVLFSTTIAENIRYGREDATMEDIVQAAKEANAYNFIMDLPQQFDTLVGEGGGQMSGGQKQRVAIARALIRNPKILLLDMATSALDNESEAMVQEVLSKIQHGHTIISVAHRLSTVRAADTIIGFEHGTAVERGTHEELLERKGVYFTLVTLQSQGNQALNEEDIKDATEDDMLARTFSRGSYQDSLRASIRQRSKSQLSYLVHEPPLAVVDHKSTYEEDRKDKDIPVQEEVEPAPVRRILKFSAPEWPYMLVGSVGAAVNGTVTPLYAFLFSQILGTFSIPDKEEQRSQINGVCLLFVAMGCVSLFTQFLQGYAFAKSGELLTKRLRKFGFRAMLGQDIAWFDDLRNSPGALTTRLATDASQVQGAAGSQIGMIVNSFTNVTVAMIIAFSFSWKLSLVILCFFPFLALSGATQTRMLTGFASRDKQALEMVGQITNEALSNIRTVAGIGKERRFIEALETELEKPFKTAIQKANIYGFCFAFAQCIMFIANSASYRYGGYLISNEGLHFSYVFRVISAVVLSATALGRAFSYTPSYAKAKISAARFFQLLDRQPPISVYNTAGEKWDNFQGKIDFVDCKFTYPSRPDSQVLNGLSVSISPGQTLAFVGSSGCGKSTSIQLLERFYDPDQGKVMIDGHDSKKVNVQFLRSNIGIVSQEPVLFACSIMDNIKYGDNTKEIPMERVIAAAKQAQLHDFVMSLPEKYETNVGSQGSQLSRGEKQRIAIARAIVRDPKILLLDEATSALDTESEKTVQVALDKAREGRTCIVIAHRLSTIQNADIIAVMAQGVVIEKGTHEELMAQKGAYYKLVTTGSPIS
Summary of the method: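 BSEP-expressing Sf9 vesicles were incubated at 37 °C with probe substrate and test article (0.5% DMSO) in HEPES-Tris pH 7.4 KNO3/Mg/sucrose buffer, and transport was started with 5 mM Mg-ATP or AMP. After rapid filtration, substrate was counted radiometrically; ATP-dependent rate = ATP minus mean AMP accumulation per incubation time, giving percent inhibition.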

T1 sequence (Q92633 whole entry): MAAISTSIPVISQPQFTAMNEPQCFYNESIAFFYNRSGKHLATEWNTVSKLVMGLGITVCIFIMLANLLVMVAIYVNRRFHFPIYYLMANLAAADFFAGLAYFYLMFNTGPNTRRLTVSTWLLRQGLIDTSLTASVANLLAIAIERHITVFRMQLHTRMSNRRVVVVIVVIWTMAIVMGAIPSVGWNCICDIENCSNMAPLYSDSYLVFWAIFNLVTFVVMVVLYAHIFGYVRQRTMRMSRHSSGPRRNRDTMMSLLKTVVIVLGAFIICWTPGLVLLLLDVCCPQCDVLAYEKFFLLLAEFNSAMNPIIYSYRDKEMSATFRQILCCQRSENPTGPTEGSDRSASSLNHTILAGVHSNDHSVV

Structure (SMILES)	IC50 (hLPAR1) [nM]	IC50 (A2058 cells) [nM]	remaining at 0.5 h [1] [%]	remaining at 0.5 h [2] [%]	inhibition at 0.25 h, 10 µM (BSEP) [%]
Cc1noc(C2CCN(c3ccc(C4(C(=O)NS(C)(=O)=O)CC4)cc3)CC2)c1NC(=O)O[C@H](C)c1ccccc1 [Compound 12]	10 to 200	< 100	50 to 75	> 75	25 to 50
Cc1nc(C2(C(=O)O)CC2)ccc1N1CCC(c2onc(C)c2NC(=O)O[C@H](C)c2ccccc2)CC1 [Compound 62]	10 to 200	100 to 500	> 75	> 75	25 to 50
Cc1noc([C@H]2CCN(c3ccc(C4(C(=O)O)CC4)cc3)[C@@H](C)C2)c1NC(=O)O[C@H](C)c1ccccc1 (single isomer, unassigned) [Compound 10]	10 to 200	< 100	> 75	> 75	25 to 50

Now from value to molecule, other results behind:

IC50 (hLPAR1) [nM]	IC50 (A2058 cells) [nM]	remaining at 0.5 h [1] [%]	remaining at 0.5 h [2] [%]	Structure (SMILES)	inhibition at 0.25 h, 10 µM (BSEP) [%]
< 10	< 100	25 to 50	50 to 75	Cc1noc(C2CCN(c3ccc(C4(c5cc(O)no5)CC4)cc3)CC2)c1NC(=O)O[C@H](C)c1ccccc1 [Compound 64]	75 to 100
< 10	< 100	> 75	25 to 50	CCc1ccccc1[C@@H](C)OC(=O)Nc1c(C)noc1C1CCN(c2ccc(C3(C(=O)O)CC3)cc2)CC1 [Compound 38, (R)-1-(4-(4-(4-(((1-(2-ethylphenyl)ethoxy)carbonyl)amino)-3-methylisoxazol-5-yl)piperidin-1-yl)phenyl)cyclopropane-1-carboxylic acid]	50 to 75
